# Laboratory results taken from publication PMC4604124, “In Vitro Characterization of the Pharmacological Properties of the Anti-Cancer Chelator, Bp4eT, and Its Phase I Metabolites” (PLoS ONE, 2015).
# Values joined by “and” are separate entries in the source; they are usually repeats but may differ in a detail not shown here. Equal entries are not always repeated. Where two headings read alike, the source gives them in different places.
# Experiments:
# [1] = system: labile iron pool of MCF-7 cells; test: Calcein-AM assay, access to the labile iron pool; type: cell-based, human; parameters: Calcein fluorescence: unit not given here; conditions: 10 μM; for Calcein fluorescence: mean (průměr)
# Experimental: These experiments were performed according to Glickstein et al. with slight modifications. The MCF-7 cells were seeded in 96-well plates (10,000 cells/well) and allowed to adhere for 24 h/37°C. Cells were loaded with iron using the cellular iron donor, ferric ammonium citrate (530 μg/mL), 24 h prior to the experiment, and then washed. To prevent potential interference, especially with regard to various trace elements, the medium was replaced with ADS buffer (prepared using Millipore water supplemented with 116 mM NaCl, 5.3 mM KCl, 1 mM CaCl2, 1.2 mM MgSO4, 1.13 mM NaH2PO4, 5 mM D-glucose, and 20 mM HEPES, pH 7.4). Cells were then loaded with 2 μM of the cell-permeable calcein green acetoxymethyl ester (calcein-AM; Molecular Probes, Oregon, USA) for 30 min/37°C and washed. Cellular esterases cleave the acetoxymethyl groups to form the cell membrane-impermeable compound, calcein green. The fluorescence of calcein green is quenched upon binding iron. The intracellular fluorescence (λex = 488 nm; λem = 530 nm) of calcein green was then followed as a function of time (10 min after the addition of 10 μM Bp4eT or its metabolites) at 37°C using the Tecan Infinite 200M plate reader. The iron chelation efficacy of the metabolites in cells was expressed as a percentage of the efficacy of the parent chelator, Bp4eT (100%).
# caspases 3/7 = test: Caspase activity, luminescent kit, caspases 3/7; type: cell-based, human; conditions: for kaspáza (3) a 7, raw signal / kaspáza (3) a 7, signal / viabilita: individual experiments by date; for kaspáza (3) a 7, raw signal, průměry / kaspáza (3) a 7, % kontroly / kaspáza (3) a 7, signal / viabilita, průměry: mean; for kaspáza (3) a 7, % kontroly / kaspáza (3) a 7, signal / viabilita / kaspáza (3) a 7, signal / viabilita, průměry: normalised to viability
# Experimental: To assess the effect of the compounds on caspase activity, MCF-7 cells were incubated with 100 nM Bp4eT or its metabolites for 3, 24 or 72 h/37°C in 96-well plates, as described above. The cells were then lysed by adding 100 μL of cold lysis buffer (100 mM HEPES, 10 mM CHAPS, 10 mM D-L-dithiothreitol, pH 7.4) to 100 μL of medium in each well. Lysates were immediately frozen at -80°C. Thawed lysates were used to assess caspase activity using luminescent kits for caspases 3/7, 8 and 9 (Promega, Madison, WI, USA). The luminescence was measured using the Tecan Infinite 200M plate reader. Caspase activity in the experimental groups was corrected according to the cellular viability of each group and expressed as a percentage of activity of the untreated control (100%).
# [2] = system: HL-60 human promyelocytic leukemia cells; test: MTT cytotoxicity assay, HL-60 cells; type: cell-based; conditions: for IC50: MTT, read-out: IC50
# Experimental: (§1) For cytotoxicity experiments, cancer cells were seeded at a density of 5,000 (MCF-7), 10,000 (HL-60) or 2,000 cells/well (HCT116 and A549) in 96-well plates (TPP) for 24 h/37°C prior to the addition of examined agents. The non-cancerous cells, 3T3 and H9c2 cells, were cultured for 24 h/37°C in 96-well plates at a density of 10,000 cells/well, the medium was then changed to serum- and pyruvate-free DMEM (Sigma-Aldrich) and incubated with the cells for another 24 h/37°C. The cytotoxic effects of Bp4eT and its metabolites were studied at different concentrations after a 72 h/37°C incubation. In order to aid the dissolution of the lipophilic ligands, 0.1% dimethyl sulfoxide (v/v) (DMSO; Sigma-Aldrich) was present in the culture medium of all groups. At this concentration, DMSO had no effect on cellular proliferation or viability.
# (§2) The viability of cells were determined using an MTT assay (Sigma-Aldrich) according to previously established methods. The optical density of soluble MTT was measured at λ = 570 nm, subtracting the λ = 690 nm background using a Tecan Infinite 200M plate reader (Tecan Group, Männedorf, Switzerland). The viability or proliferation of experimental groups was expressed as a percentage of the untreated controls (100%).
# (§3) SigmaStat for Windows 3.5 (Systat Software, San Jose, CA, USA) statistical software package was utilized to analyze results. The data are expressed as the mean ± SD of a given number of experiments. Statistical significance was determined using a one-way ANOVA with a Bonferroni post-hoc test or Student’s t-test. The results were considered to be statistically significant when p < 0.05. The IC50 values were calculated using CalcuSyn 2.0 software (Biosoft, Cambridge, UK). Cell cycle analysis was evaluated using MultiCycle AV Software (Phoenix Flow Systems, San Diego, CA, USA).
# [3] = Viability (viabilita) used to normalise caspase activity; type: cell-based, human; conditions: human, MCF-7 cells, kontrola = 100;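 note: compound tested at 100 nM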
# Description: Supplement pone.0139929.s002.zip/caspases activity.xlsx, sheet "results_viability"
# H9c2 cardiomyoblasts = test: MTT cytotoxicity assay, H9c2 cells; type: cell-based, rat; conditions: for IC50: MTT
# Experimental: as §1, §2, §3
structure (smiles),measurement,setting,value
"CCN=CNN=C(c1ccccc1)c1ccccn1 [Bp4eA, N ^3-ethyl-N ^1-[phenyl(pyridin-2-yl)methylene]formamidrazone]",Calcein fluorescence,[1]; 30 sec,16.628
same,Calcein fluorescence,[1]; 60 sec,5.072
same,Calcein fluorescence,[1]; 90 sec,8.535
same,Calcein fluorescence,[1]; 120 sec,16.564
same,Calcein fluorescence,[1]; 300 sec,13.356
same,Calcein fluorescence,[1]; 600 sec,12.951
same,Chelation efficacy: fluorescence of free calcein at t = 600 s as percentage of Bp4eT,"[1]; MCF-7, mean of 6 experiments",5.9% and 5.872%
same,"kaspáza (3) a 7, raw signal",caspases 3/7; 3 hodiny,1911.5 and 1519 and 1669 and 1490
same,"kaspáza (3) a 7, raw signal, průměry",caspases 3/7; 3 hodiny,1647.38
same,"kaspáza (3) a 7, % kontroly",caspases 3/7; 3 hodiny,103.19 % kontroly
same,"kaspáza (3) a 7, signal / viabilita",caspases 3/7; 3 hodiny,19.7461 and 15.6915 and 17.241 and 15.3919
same,"kaspáza (3) a 7, signal / viabilita, průměry",caspases 3/7; 3 hodiny,17.0176
same,"kaspáza (3) a 7, raw signal",caspases 3/7; 24 hodin,2415 and 2091.5 and 2337 and 2002.5
same,"kaspáza (3) a 7, raw signal, průměry",caspases 3/7; 24 hodin,2211.5
same,"kaspáza (3) a 7, % kontroly",caspases 3/7; 24 hodin,101.36 % kontroly
same,"kaspáza (3) a 7, signal / viabilita",caspases 3/7; 24 hodin,25.2632 and 21.8791 and 24.4473 and 20.9481
same,"kaspáza (3) a 7, signal / viabilita, průměry",caspases 3/7; 24 hodin,23.1344
same,"kaspáza (3) a 7, raw signal",caspases 3/7; 72 hodin,7143 and 7295 and 7483 and 8002
same,"kaspáza (3) a 7, raw signal, průměry",caspases 3/7; 72 hodin,7480.75
same,"kaspáza (3) a 7, % kontroly",caspases 3/7; 72 hodin,108.88 % kontroly
same,"kaspáza (3) a 7, signal / viabilita",caspases 3/7; 72 hodin,76.7734 and 78.4071 and 80.4278 and 86.006
same,"kaspáza (3) a 7, signal / viabilita, průměry",caspases 3/7; 72 hodin,80.4036
same,"Therapeutic index, IC50 non-cancerous cells / IC50 neoplastic cells",[2]; 3T3/HL-60,19.7
same,"Therapeutic index, IC50 non-cancerous cells / IC50 neoplastic cells",[2]; H9c2/HL-60,8.0
same,"MTT, relative to control (0 = 100)","[2]; HL-60, 10 000 b/j, 3 μM, průměr (mean), sheet Bp4eA",96.31
same,"MTT, relative to control (0 = 100)","[2]; HL-60, 10 000 b/j, 3 μM, single experiment (date), sheet Bp4eA",98.9707 and 95.9296 and 99.8753 and 90.4839
same,"MTT, relative to control (0 = 100)","[2]; HL-60, 10 000 b/j, 10 μM, průměr (mean), sheet Bp4eA",96.62
same,"MTT, relative to control (0 = 100)","[2]; HL-60, 10 000 b/j, 10 μM, single experiment (date), sheet Bp4eA",97.2125 and 99.0002 and 94.4459 and 95.8253
same,"MTT, relative to control (0 = 100)","[2]; HL-60, 10 000 b/j, 30 μM, průměr (mean), sheet Bp4eA",83.43
same,"MTT, relative to control (0 = 100)","[2]; HL-60, 10 000 b/j, 30 μM, single experiment (date), sheet Bp4eA",80.8819 and 83.0208 and 86.8317 and 82.995
same,"MTT, relative to control (0 = 100)","[2]; HL-60, 10 000 b/j, 50 μM, průměr (mean), sheet Bp4eA",62.90
same,"MTT, relative to control (0 = 100)","[2]; HL-60, 10 000 b/j, 50 μM, single experiment (date), sheet Bp4eA",62.3054 and 62.5036 and 62.1604 and 64.6299
same,"MTT, relative to control (0 = 100)","[2]; HL-60, 10 000 b/j, 80 μM, průměr (mean), sheet Bp4eA",16.51
same,"MTT, relative to control (0 = 100)","[2]; HL-60, 10 000 b/j, 100 μM, průměr (mean), sheet Bp4eA",1.77
same,"MTT, relative to control (0 = 100)","[2]; HL-60, 10 000 b/j, 300 μM, průměr (mean), sheet Bp4eA",1.66
same,IC50,"[2]; HL-60, 10 000 b/j, single experiment (date), sheet Bp4eA",51 µM and 54.1 µM and 55.3 µM
same,IC50,"[2]; Homo sapiens, HL-60, 72 h, HL-60, 72 h/37°C, mean ± SD, n ≥ 4",52.1 ± 3.3 µM
same,IC50,"[2]; Homo sapiens, HL-60, HL-60, 10 000 b/j, průměr (mean), sheet Bp4eA",52.1 µM
same,IC50,"[2]; Homo sapiens, HL-60, HL-60, 10 000 b/j, single experiment (date), sheet Bp4eA",47.9 µM
same,"viability at 3 h, 100 nM",[3]; 3 hodiny,96.8%
same,"viability at 24 h, 100 nM",[3]; 24 hodin,95.6%
same,"viability at 72 h, 100 nM",[3]; 72 hodin,93%
same,"MTT, relative to control (0 = 100)","H9c2 cardiomyoblasts; H9c2, 10 000 b/j, 1 μM, průměr (mean), sheet Bp4eA",96.26
same,"MTT, relative to control (0 = 100)","H9c2 cardiomyoblasts; H9c2, 10 000 b/j, 1 μM, single experiment (date), sheet Bp4eA",96.9641 and 92.8493 and 97.4859 and 95.7195 and 98.2981
same,"MTT, relative to control (0 = 100)","H9c2 cardiomyoblasts; H9c2, 10 000 b/j, 3 μM, průměr (mean), sheet Bp4eA",96.27
same,"MTT, relative to control (0 = 100)","H9c2 cardiomyoblasts; H9c2, 10 000 b/j, 3 μM, single experiment (date), sheet Bp4eA",100.784 and 93.7843 and 97.6949 and 91.6948 and 97.3803
same,"MTT, relative to control (0 = 100)","H9c2 cardiomyoblasts; H9c2, 10 000 b/j, 10 μM, průměr (mean), sheet Bp4eA",95.56
same,"MTT, relative to control (0 = 100)","H9c2 cardiomyoblasts; H9c2, 10 000 b/j, 10 μM, single experiment (date), sheet Bp4eA",96.5102 and 92.1411 and 95.5166 and 98.0809
same,"MTT, relative to control (0 = 100)","H9c2 cardiomyoblasts; H9c2, 10 000 b/j, 30 μM, průměr (mean), sheet Bp4eA",93.18
same,"MTT, relative to control (0 = 100)","H9c2 cardiomyoblasts; H9c2, 10 000 b/j, 30 μM, single experiment (date), sheet Bp4eA",94.6024 and 93.1446 and 95.1622 and 88.8218 and 94.1801
same,"MTT, relative to control (0 = 100)","H9c2 cardiomyoblasts; H9c2, 10 000 b/j, 100 μM, průměr (mean), sheet Bp4eA",76.55
same,"MTT, relative to control (0 = 100)","H9c2 cardiomyoblasts; H9c2, 10 000 b/j, 100 μM, single experiment (date), sheet Bp4eA",76.7908 and 72.9908 and 82.9441 and 73.781 and 76.2525
same,"MTT, relative to control (0 = 100)","H9c2 cardiomyoblasts; H9c2, 10 000 b/j, 300 μM, průměr (mean), sheet Bp4eA",66.55
same,"MTT, relative to control (0 = 100)","H9c2 cardiomyoblasts; H9c2, 10 000 b/j, 300 μM, single experiment (date), sheet Bp4eA",71.4763 and 63.147 and 62.7404 and 68.8465
same,"MTT, relative to control (0 = 100)","H9c2 cardiomyoblasts; H9c2, 10 000 b/j, 1000 μM, průměr (mean), sheet Bp4eA",23.16
same,"MTT, relative to control (0 = 100)","H9c2 cardiomyoblasts; H9c2, 10 000 b/j, 1000 μM, single experiment (date), sheet Bp4eA",17.0741 and 23.4615 and 18.1134 and 33.9931
same,IC50,"H9c2 cardiomyoblasts; H9c2, 10 000 b/j, single experiment (date), sheet Bp4eA, read-out: IC50 měřené",510 µM and 315 µM and 533 µM
same,IC50,"H9c2 cardiomyoblasts; Rattus norvegicus, H9c2, 72 h, H9c2, 72 h/37°C, mean ± SD, n ≥ 4, read-out: IC50",416 ± 122 µM
same,IC50,"H9c2 cardiomyoblasts; Rattus norvegicus, H9c2, H9c2, 10 000 b/j, průměr (mean), sheet Bp4eA, read-out: IC50 měřené",416 µM
same,IC50,"H9c2 cardiomyoblasts; Rattus norvegicus, H9c2, H9c2, 10 000 b/j, single experiment (date), sheet Bp4eA, read-out: IC50 měřené",306 µM
